Measured values published in patent publication US10765651B2, “Co-crystals of substituted glycine and uses thereof” (SyneuRx International (Taiwan) Corp., priority 2017, dated 2020).
Like-named read-outs stand apart in the source and are kept apart here.

Assays:
[1] = Hygroscopicity test of fumaric acid co-crystals under ambient conditions; type: physicochemical
Description: 0.1 to 0.5 g of each of 1:1, 2:1, 3:1, and 6:1 N-methylglycine co-crystals were placed in the vial under the ambient conditions. The weight changes at various time points of each co-crystal were measured and illustrated in Table 4 below.

[2] = DVS, 0 to 70 to 0% RH, 25° C.
Description: Measurement were taken from 0 to 70 to 0% RH at 25° C. with 10% RH per step with equilibration set to dm/dt+0.01%/min for 10 min or 180 min/step.

[3] = Hygroscopicity test, condition 2 (humidity chamber, weight change); type: physicochemical; conditions: for Weight change (%): dry before (change on drying to 0 hr weight)
[4] = 70-75% RH, room temperature, 3 days
[5] = Hygroscopicity test, condition 3 (dynamic vapor sorption, 0 to 90 to 0% RH); type: physicochemical; conditions: DVS, 25° C.
Description: Measurement were taken from 0 to 90 to 0% RH at 25° C. with 10% RH per step with equilibration set to dm/dt+0.01%/min for 10 min or 180 min/step.

[6] = 30° C., 75% RH, 72 hr, listed as 2:1 N-methylglycine:L-tartaric acid co-crystal

Row | SMILES | Change In Mass (%) ([1]; 15 hr) | Change In Mass (%) ([1]; 21 hr) | Change In Mass (%) ([1]; 45 hr) | Change In Mass (%) ([1]; 48 hr) | Change In Mass (%) ([1]; 64 hr) | Weight ([3]; 30° C., 75% RH, 0 hr) | Weight ([3]; 30° C., 75% RH, 1 hr) | Weight change (%), water absorbed ([3]; 30° C., 75% RH, 1 hr) | Weight ([3]; 30° C., 75% RH, 2 hr) | Weight change (%), water absorbed ([3]; 30° C., 75% RH, 2 hr) | Weight ([3]; 30° C., 75% RH, 3 hr) | Weight change (%), water absorbed ([3]; 30° C., 75% RH, 3 hr) | Weight ([3]; 30° C., 75% RH, 5 hr) | Weight change (%), water absorbed ([3]; 30° C., 75% RH, 5 hr) | Weight ([3]; 30° C., 75% RH, 24 hr) | Weight change (%), water absorbed ([3]; 30° C., 75% RH, 24 hr) | Weight ([3]; 30° C., 75% RH, 48 hr) | Weight change (%), water absorbed ([3]; 30° C., 75% RH, 48 hr) | Change In Mass (%) ([5]; RH 70%) | Change In Mass (%) ([5]; RH 90%) | also measured
1 | CNCC(=O)O.CNCC(=O)O.CNCC(=O)O.O=C(O)/C=C/C(=O)O [N-MG/FA = 3/1, N-methylglycine:fumaric acid (3:1 co-crystal)] | 18.29% | 20.78% | 26.13% | 26.37% | 29.22% |  |  |  |  |  |  |  |  |  |  |  |  |  |  |  | 
2 | CNCC(=O)O.CNCC(=O)O.CNCC(=O)O.CNCC(=O)O.CNCC(=O)O.CNCC(=O)O.O=C(O)/C=C/C(=O)O [N-MG/FA = 6/1, N-methylglycine:fumaric acid (6:1 co-crystal)] | 18.30% | 25.14% | 47.59% | 48.84% | 56.36% |  |  |  |  |  |  |  |  |  |  |  |  |  |  |  | 
3 | CNCC(=O)O.O=C(O)C(O)C(O)C(=O)O [N-MG/L-TA = 1/1, N-methylglycine:L-tartaric acid (1:1) co-crystal] |  |  |  |  |  | 0.1432 g | 0.1437 g | (+0.3%) | 0.1437 g | (+0.3%) | 0.1439 g | (+0.4%) | 0.1439 g | (+0.4%) | 0.1440 g | (+0.5%) | 0.1440 g | (+0.5%) |  |  | Hygroscopicity comparison [2]: less hygroscopic than N-methylgycine or L-tartaric acid individually; Weight change (%), water absorbed ([3]; 30° C., 75% RH, 5 hr, listed as N-methylglycine:L-tartaric acid co-crystal): 0.4%; Outward (appearance) ([3]; 30° C., 75% RH, 72 hr): remained as white powder; Weight ([3]; 30° C., 75% RH, 72 hr): 0.1441 g; Weight change (%), water absorbed ([3]; 30° C., 75% RH, 72 hr): (+0.6%); Weight change (%), water absorbed ([3]; 30° C., 75% RH, 72 hr, listed as 1:1 N-methylglycine:L-tartaric acid co-crystal): 0.6%; Hygroscopicity comparison ([3]; 30° C., 75% RH, listed as 1:1 N-methylglycine:L-tartaric acid co-crystal): much less hygroscopic than 2:1 N-methylglycine:L-tartaric acid co-crystal; Outward (appearance) ([3]; dry before): White; Weight ([3]; dry before): 0.1434 g; Weight change (%) [3]: (−0.1%); Appearance after exposure to high humidity [4]: remained as fine white powder; Hygroscopicity comparison [4]: much less hygroscopic than the 2:1 co-crystal
4 | CNCC(=O)O.CNCC(=O)O.O=C(O)C(O)C(O)C(=O)O [N-MG/L-TA = 2/1, N-methylglycine:L-tartaric acid 2:1 co-crystal] |  |  |  |  |  | 0.1455 g | 0.1462 g | (+0.4%) | 0.1463 g | (+0.5%) | 0.1464 g | (+0.6%) | 0.1465 g | (+0.7%) | 0.1465 g | (+0.7%) | 0.1465 g | (+0.7%) | 0.18% | 10.74% | Outward (appearance) ([3]; 30° C., 75% RH, 72 hr): Partial; Weight ([3]; 30° C., 75% RH, 72 hr): 0.1471 g; Weight change (%), water absorbed ([3]; 30° C., 75% RH, 72 hr): (+1.1%); Outward (appearance) [3, 6]: turned into a partial liquid; Weight change (%), water absorbed [3, 6]: 1.1%; Outward (appearance) ([3]; dry before): White; Weight ([3]; dry before): 0.1457 g; Weight change (%) [3]: (−0.1%); Change In Mass (%) ([5]; RH 0%): 0.00%; Change In Mass (%) ([5]; RH 10%): 0.01%; Change In Mass (%) ([5]; RH 20%): 0.03%; Change In Mass (%) ([5]; RH 30%): 0.05%; Change In Mass (%) ([5]; RH 40%): 0.07%; Change In Mass (%) ([5]; RH 50%): 0.09%; Change In Mass (%) ([5]; RH 60%): 0.13%; Change In Mass (%) ([5]; RH 80%): 0.32%; Appearance after exposure to high humidity [4]: turned into moisturized and somewhat sticky white solid
5 | CNCC(=O)O.CNCC(=O)O.O=C(O)C(O)C(O)C(=O)O [N-methylglycine:D-tartaric acid 2:1 co-crystal] |  |  |  |  |  |  |  |  |  |  |  |  |  |  |  |  |  |  | 0.31% | 14.27% | 
6 | CNCC(=O)O.CNCC(=O)O.O=C(O)C(O)C(O)C(=O)O [N-methylglycine:L-tartaric acid 2:1 co-crystal] |  |  |  |  |  |  |  |  |  |  |  |  |  |  |  |  |  |  | 0.18% | 10.74% | 
